For one assay, the target named is T1, VEGFR2 (Homo sapiens, UniProt P35968).
T1 construct: The human umbilical endothelial (HUE) cell line expresses high levels of VEGFR2; endogenous in cells; host or cells: HUE (human umbilical endothelial) cell line
Briefly: Cellular VEGFR2 tyrosine auto-phosphorylation assay in HUE cells after VEGF-A stimulation (sandwich ELISA). The format is cell-based. Conditions: 90 min incubation with compound, then 3 min stimulation with 100 ng/ml VEGF-A, phosphorylated VEGFR2 by ELISA, read-out: cellular 1050 values, VEGFR2. How it is done:
The human umbilical endothelial (HUE) cell line expresses high levels of VEGFR2. The compound prepared in Example 2 above, 1-(4-(3-amino-[1,2,3]triazolo[1,5-a]pyridin-4-yl)phenyl)-3-(3-chlorophenyl)urea, was tested for the ability to inhibit tyrosine auto-phosphorylation of this receptor after stimulation with vascular endothelial growth factor A (VEGF-A). HUE cells were plated into multi-well cell culture plates in endothelial cell growth medium (ECGM) supplemented with 10% fetal calf serum (FCS). After starvation in endothelial cell basal medium (ECBM) supplemented with […] overnight cells were incubated with compounds in serum-free ECBM. […] Cells were incubated for 90 min at 37° C. in ECBM with the serial diluted compound and then stimulated for 3 min with 100 ng/ml VEGF-A. Cells were lysed, and then levels of phosphorylated VEGFR2 were determined in a sandwich ELISA assay formatted in a multi-well plate using a VEGFR2 specific capture antibody and an anti-phosphotyrosine VEGFR2 detection antibody. […] IC50 values were determined by fitting the converted eight point dose response data to a four-parameter logistic equation using GRAPHPAD PRISM® 5.01 software.
For orientation: ELISA stands for enzyme-linked immunosorbent assay.

Another assay has as its target T2, PDGFR-β (Mus musculus, UniProt P05622).
T2 construct: The murine embryonal fibroblast cell line NIH3T3 expresses endogenously high levels of PDGFR-β; endogenous in cells; host or cells: NIH3T3 murine embryonal fibroblast cell line
Briefly: Cellular PDGFR-β tyrosine auto-phosphorylation assay in NIH3T3 cells after PDGF-BB stimulation (sandwich ELISA). The format is cell-based, murine. Particulars: 90 min incubation with compound, then 3 min stimulation with 100 ng/ml PDGF-BB, phosphorylated PDGFR-β by ELISA, read-out: cellular 1050 values, PDGFR-β. How it is done:
The murine embryonal fibroblast cell line NIH3T3 expresses endogenously high levels of PDGFR-β. The compound prepared in Example 2 above was tested for the ability to inhibit tyrosine auto-phosphorylation of this receptor after stimulation with platelet-derived growth factor BB (PDGF-BB). The NIH3T3 cells were plated into multi-well cell culture plates in Dulbecco's Modified Eagle Medium (DMEM) supplemented with 10% FCS. The medium was removed and then replaced with DMEM without FCS and cells serum starved overnight at 37° C. On the day of the assay the compound was 1:3 serial diluted from 10 mM stocks in 100% DMSO and then were 1:100 diluted to each well of cells in DMEM without FCS to create final solutions containing 1% DMSO and an eight point compound dose response curve starting at 10^−6 M, 10^−7 M, or 10^−8 M. The compound was added in duplicate to columns of the multi-well plate. […] Cells were lysed, and then levels of phosphorylated PDGFR-β were determined in a sandwich ELISA assay formatted in a multi-well plate using a PDGFR-β specific capture antibody and an anti-phosphotyrosine PDGFR-β detection antibody. […] IC50 values were determined by fitting the converted eight point dose response data to a four-parameter logistic equation using GRAPHPAD PRISM® 5.01 software.

T2 sequence (P05622 32-1098): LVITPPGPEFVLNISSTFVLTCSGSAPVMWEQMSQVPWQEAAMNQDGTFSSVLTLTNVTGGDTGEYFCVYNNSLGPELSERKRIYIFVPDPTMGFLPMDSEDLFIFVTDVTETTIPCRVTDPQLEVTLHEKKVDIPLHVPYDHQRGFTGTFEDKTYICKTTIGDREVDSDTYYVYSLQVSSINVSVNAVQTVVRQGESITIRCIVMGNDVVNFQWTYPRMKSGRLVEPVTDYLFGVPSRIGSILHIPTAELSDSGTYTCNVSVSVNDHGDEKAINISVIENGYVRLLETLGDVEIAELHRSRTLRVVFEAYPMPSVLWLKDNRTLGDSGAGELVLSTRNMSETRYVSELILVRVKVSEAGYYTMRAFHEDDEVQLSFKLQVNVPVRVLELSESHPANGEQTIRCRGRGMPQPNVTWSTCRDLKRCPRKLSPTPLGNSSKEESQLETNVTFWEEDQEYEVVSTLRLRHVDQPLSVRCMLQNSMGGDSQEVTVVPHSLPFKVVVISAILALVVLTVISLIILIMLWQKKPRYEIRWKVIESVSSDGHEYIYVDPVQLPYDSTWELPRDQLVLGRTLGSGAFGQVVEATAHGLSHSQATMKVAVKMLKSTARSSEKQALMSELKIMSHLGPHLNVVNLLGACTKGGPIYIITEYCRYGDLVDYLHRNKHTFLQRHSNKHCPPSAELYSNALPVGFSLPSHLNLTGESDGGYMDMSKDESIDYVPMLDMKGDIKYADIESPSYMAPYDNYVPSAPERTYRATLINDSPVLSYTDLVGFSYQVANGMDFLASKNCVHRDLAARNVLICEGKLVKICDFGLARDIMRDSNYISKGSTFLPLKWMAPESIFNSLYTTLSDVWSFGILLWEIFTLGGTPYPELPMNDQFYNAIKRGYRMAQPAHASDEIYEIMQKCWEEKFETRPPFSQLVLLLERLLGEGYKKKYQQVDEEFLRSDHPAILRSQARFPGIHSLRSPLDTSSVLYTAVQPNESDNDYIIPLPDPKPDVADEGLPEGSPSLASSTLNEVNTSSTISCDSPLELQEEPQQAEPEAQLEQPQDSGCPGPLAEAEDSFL
T1 sequence (P35968 20-1356): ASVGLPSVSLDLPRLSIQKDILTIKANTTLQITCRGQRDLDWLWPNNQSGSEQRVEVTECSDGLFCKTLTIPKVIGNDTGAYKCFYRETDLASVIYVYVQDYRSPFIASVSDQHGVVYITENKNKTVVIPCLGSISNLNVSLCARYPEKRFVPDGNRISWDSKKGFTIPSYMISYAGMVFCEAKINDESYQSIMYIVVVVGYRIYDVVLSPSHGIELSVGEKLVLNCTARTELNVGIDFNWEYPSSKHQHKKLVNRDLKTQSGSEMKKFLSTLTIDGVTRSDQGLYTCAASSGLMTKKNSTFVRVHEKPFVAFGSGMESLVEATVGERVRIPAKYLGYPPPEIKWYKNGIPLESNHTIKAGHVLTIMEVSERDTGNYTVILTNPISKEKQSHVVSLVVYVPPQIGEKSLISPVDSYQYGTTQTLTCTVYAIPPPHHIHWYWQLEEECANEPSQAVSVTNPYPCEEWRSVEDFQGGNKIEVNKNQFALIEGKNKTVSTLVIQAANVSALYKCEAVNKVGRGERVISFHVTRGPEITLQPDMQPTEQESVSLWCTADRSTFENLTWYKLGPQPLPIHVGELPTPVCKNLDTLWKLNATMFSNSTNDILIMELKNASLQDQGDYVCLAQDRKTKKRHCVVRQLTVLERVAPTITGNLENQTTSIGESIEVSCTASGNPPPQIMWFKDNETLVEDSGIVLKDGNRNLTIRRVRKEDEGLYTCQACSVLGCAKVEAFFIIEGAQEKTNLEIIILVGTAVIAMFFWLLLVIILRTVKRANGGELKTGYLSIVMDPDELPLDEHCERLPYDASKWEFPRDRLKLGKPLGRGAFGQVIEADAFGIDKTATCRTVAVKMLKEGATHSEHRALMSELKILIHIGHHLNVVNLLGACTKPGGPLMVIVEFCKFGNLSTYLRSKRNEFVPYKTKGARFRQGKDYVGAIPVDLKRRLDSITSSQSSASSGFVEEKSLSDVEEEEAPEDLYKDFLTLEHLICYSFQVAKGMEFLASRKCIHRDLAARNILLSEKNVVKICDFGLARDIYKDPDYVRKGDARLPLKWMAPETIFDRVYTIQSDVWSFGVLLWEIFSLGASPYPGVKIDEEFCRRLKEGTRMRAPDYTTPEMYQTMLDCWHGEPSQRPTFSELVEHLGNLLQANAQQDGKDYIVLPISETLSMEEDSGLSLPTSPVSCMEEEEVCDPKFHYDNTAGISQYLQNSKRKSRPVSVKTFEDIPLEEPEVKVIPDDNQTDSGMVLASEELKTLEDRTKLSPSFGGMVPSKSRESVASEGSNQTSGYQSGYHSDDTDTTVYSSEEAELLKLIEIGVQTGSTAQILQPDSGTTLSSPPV

On to `Nc1nnn2cccc(-c3ccc(NC(=O)Nc4cccc(Cl)c4)cc3)c12` [compound of Formula (I), 1-(4-(3-amino-[1,2,3]triazolo[1,5-a]pyridin-4-yl)phenyl)-3-(3-chlorophenyl)urea], for which the IC50 at VEGFR2 amounted to 0.37 nM; at PDGFR-β, 3.2 nM.

(Values after patent publication US10875857B2, “1-amino-triazolo(1,5-A)pyridine-substituted urea derivative and uses thereof” (Kala Pharmaceuticals, Inc., priority 2014, dated 2020).)
